Results published in PMC9740098, “In Vitro Evaluation of the Interaction of Seven Biologically Active Components in Anemarrhenae rhizoma with P-gp” (Molecules, 2022).

What was measured:
P-gp [1] = molecular target: T1, P-gp (Homo sapiens, UniProt P08183); test: Bidirectional transport assay of single components (substrate assay), with or without verapamil; assay type: in vitro ADME; conditions: dog; for Papp A→B at 2 h / Papp B→A at 2 h: n = 3; for efflux ratio at 2 h: n = 3, read-out: ER (efflux ratio)
T1 sequence (P08183 whole entry): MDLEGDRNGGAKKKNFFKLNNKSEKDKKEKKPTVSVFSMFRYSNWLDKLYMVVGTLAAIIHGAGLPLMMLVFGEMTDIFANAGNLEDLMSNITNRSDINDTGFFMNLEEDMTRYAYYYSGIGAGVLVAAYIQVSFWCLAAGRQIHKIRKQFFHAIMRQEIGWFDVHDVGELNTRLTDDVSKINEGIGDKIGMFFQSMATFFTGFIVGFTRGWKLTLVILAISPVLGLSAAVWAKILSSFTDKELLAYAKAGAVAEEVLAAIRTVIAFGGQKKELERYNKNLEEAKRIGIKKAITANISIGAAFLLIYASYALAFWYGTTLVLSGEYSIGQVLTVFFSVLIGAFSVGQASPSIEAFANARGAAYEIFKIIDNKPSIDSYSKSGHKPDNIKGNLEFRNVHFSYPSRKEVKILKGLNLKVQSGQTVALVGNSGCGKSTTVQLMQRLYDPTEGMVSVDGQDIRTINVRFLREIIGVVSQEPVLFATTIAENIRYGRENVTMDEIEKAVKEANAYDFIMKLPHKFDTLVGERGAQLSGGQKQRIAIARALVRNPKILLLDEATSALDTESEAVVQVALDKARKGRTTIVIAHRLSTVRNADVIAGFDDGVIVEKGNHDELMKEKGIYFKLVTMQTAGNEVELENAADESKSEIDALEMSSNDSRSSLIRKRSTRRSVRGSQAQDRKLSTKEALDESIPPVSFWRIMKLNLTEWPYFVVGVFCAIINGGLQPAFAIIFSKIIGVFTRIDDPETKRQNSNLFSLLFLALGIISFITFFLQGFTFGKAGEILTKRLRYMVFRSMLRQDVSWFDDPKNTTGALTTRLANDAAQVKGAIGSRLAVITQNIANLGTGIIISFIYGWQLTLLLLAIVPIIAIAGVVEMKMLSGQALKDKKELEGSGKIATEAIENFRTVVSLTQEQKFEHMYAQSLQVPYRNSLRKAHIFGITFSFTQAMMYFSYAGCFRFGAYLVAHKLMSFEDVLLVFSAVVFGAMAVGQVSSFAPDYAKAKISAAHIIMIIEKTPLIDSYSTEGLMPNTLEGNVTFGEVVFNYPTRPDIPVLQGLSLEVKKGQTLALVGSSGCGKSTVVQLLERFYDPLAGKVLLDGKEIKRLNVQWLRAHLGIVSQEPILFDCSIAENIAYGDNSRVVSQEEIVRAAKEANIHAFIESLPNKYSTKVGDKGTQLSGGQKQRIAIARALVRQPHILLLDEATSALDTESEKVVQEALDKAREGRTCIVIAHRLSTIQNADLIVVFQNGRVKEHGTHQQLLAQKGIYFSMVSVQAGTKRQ
Experimental: (§1) Before experiments, cell monolayers were washed twice with HBSS and equilibrated with HBSS for 30 min at 37 °C. HBSS containing different components was added to either the apical or basolateral chamber (donor chamber), and blank HBSS was added to the opposite chamber (receiver chamber). The total volume is 0.5 mL in the apical chamber and 1.5 mL in the basolateral chamber. Aliquots (100 μL) were taken from the acceptor chamber every 30 min for 2 h, and the same volume of HBSS was replenished. The transport samples were prepared using solid-phase extraction (SPE). Bond Elut C18 cartridge (Agilent, Santa Clara, CA, USA, 100 mg, 1 mL, 100/pk) was preconditioned with 1 mL methanol and 1 mL deionized water. Both 100 μL of bidirectional assay sample solution and 20 μL of IS solution was loaded onto the SPE cartridge, and the eluent that passed through the SPE cartridge was discarded. After washing with 1 mL of deionized water, 1 mL of the eluent solvent was introduced into the SPE cartridge for collection. The target solutions were concentrated by nitrogen blowing and re-dissolved. The amount of seven constituents of AR was determined by LC-MS/MS. The apparent permeability (Papp) of each substrate across MDCK-MDR1 cell monolayers in both the basolateral to apical (B > A) and apical to basolateral (A > B) directions were calculated using the following formula: […]

P-gp [2] = molecular target: T1, P-gp; test: Bidirectional transport assay of Rh-123 (P-gp inhibition); assay type: cell-based; conditions: for Papp (AP-BL) of rhodamine-123 in combination with the compound / Papp (BL-AP) of rhodamine-123 in combination with the compound: dog, MDCK-MDR1, 120 min
Experimental: The HBSS containing 10 μM Rh-123 and different AR components as described in the above Section 4.6.1 were prepared. Additionally, The HBSS containing 10 μM Rh-123 and 0.625 μM valspodar were prepared as the positive control. Before experiments, cell monolayers were washed twice with HBSS and equilibrated with HBSS for 30 min at 37 °C. HBSS containing AR component and Rh-123 was added to either the apical or basolateral chamber (donor chamber), and HBSS containing AR component was added to the opposite chamber (receiver chamber). The total volume is 0.5 mL in the apical chamber and 1.5 mL in the basolateral chamber. Aliquots (100 μL) were taken from the acceptor chamber at 15 min, 30 min, 60 min, 90 min, and 120 min, and the same volume of blank HBSS was replenished. The positive control group was treated as above. The apparent permeability (Papp) of each substrate across MDCK-MDR1 cell monolayers in both the basolateral to apical (B > A) and apical to basolateral (A > B) directions were calculated using the following formula: […]

P-gp [3] = molecular target: T1, P-gp; test: Bidirectional transport assay of AR extract (seven components quantified); assay type: in vitro ADME; conditions: dog; for Papp A→B at 2 h / Papp B→A at 2 h: component given as AR extract (10 mg/mL in HBSS)
Experimental: as §1, with “The HBSS containing 10 mg/mL AR extract was prepared. Before” for “Before”, “AR extract” for “different components”

[4] = system: MDCK-MDR1 monolayer cell model; test: Permeability assay validating the MDCK-MDR1 monolayer cell model; assay type: in vitro ADME; conditions: in 120 min
Source text: In this study, an MDCK-MDR1 monolayer cell model was established.

[5] = MDCK-MDR1, Single Component + Verapamil Group
[6] = MDCK-MDR1, Single Component Group, Papp(BL-AP)/Papp(AP-BL)
[7] = MDCK-MDR1, with verapamil (concentration not stated), Single Component + Verapamil Group
[8] = Single Component Group, MDCK-MDR1, 2.0 µM TAIII, 1.6 μM TBII, 4.7 μM MGF, 4.7 μM IMGF, 3.4 μM NMGF, 1.2 μM SSG, 3.9 μM BHI
[9] = Single Component Group, MDCK-MDR1
[10] = MDCK-MDR1, AR Extract Group, n = 3, read-out: ER (efflux ratio)

| efflux ratio at 2 h (P-gp [1]; [6]) | Papp A→B at 2 h (P-gp [3]; MDCK-MDR1, n = 3) [×10⁻⁶ cm/s] | Papp B→A at 2 h (P-gp [3]; MDCK-MDR1, n = 3) [×10⁻⁶ cm/s] | efflux ratio at 2 h (P-gp [1]; [7]) | Papp A→B at 2 h (P-gp [1]; [8]) [×10⁻⁶ cm/s] | Papp B→A at 2 h (P-gp [1]; [9]) [×10⁻⁶ cm/s] | Papp (AP-BL) of rhodamine-123 in combination with the compound (P-gp [2]) [×10⁻⁶ cm/s] | Papp (BL-AP) of rhodamine-123 in combination with the compound (P-gp [2]) [×10⁻⁶ cm/s] | efflux ratio at 2 h (P-gp [3]; [10]) | Compound | Papp A→B at 2 h (P-gp [1]; [5]) [×10⁻⁶ cm/s] | Papp B→A at 2 h (P-gp [1]; [5]) [×10⁻⁶ cm/s] | efflux ratio at 2 h (P-gp [1]; [5]) | Papp A→B at 2 h (P-gp [1]; MDCK-MDR1, Single Component Group, 2.0 µM TAIII, 1.6 μM TBII, 4.7 μM MGF, 4.7 μM IMGF, 3.4 μM NMGF, 1.2 μM SSG, 3.9 μM BHI) [×10⁻⁶ cm/s] | Papp B→A at 2 h (P-gp [1]; MDCK-MDR1, Single Component Group) [×10⁻⁶ cm/s] | ER (efflux ratio) of rhodamine-123 in combination with the compound (P-gp [2]; 10 μM Rh-123 with AR component or 0.625 μM valspodar, control ER 2.46, MDCK-MDR1, n = 3) | efflux ratio at 2 h (P-gp [3]; AR Extract Group, MDCK-MDR1, n = 3, read-out: ER (efflux ratio)) | Pe value [4] |
| --- | --- | --- | --- | --- | --- | --- | --- | --- | --- | --- | --- | --- | --- | --- | --- | --- | --- |
|  |  |  |  |  |  |  |  |  | O=C([O-])c1ccccc1-c1c2ccc(=O)cc-2oc2cc([O-])ccc12.[Na+].[Na+] [fluorescein sodium] |  |  |  |  |  |  |  | 0.78 ± 0.02 × 10^−6 cm/s |
| > 2 | 0.586 | 0.283 | 0.53 | 0.606 | 1.35 | 1.88 | 2.36 | 0.48 | O=c1c2cc(O)c(O)cc2oc2cc(O)c([C@@H]3O[C@H](CO)[C@@H](O)[C@H](O)[C@H]3O)c(O)c12 [MGF, mangiferin] |  |  |  |  |  |  |  |  |
| 2.26 | 0.155 | 0.298 | 1.08 | 0.24 | 0.72 | 1.73 | 2.53 |  | COc1ccc(-c2oc3c(CC=C(C)C)c(O)cc(O)c3c(=O)c2O[C@@H]2O[C@@H](C)[C@H](O)[C@@H](O)[C@H]2O)cc1 [BHI, baohuoside I] |  |  |  |  |  |  |  |  |
| > 2 | 3.05 | 1.94 | 0.88 | 0.955 | 2.16 | 1.78 | 2.17 | 0.63 | C[C@H]1CC[C@@]2(OC1)O[C@H]1C[C@H]3[C@@H]4CC[C@@H]5C[C@@H](O[C@@H]6O[C@H](CO)[C@H](O)[C@H](O)[C@H]6O[C@@H]6O[C@H](CO)[C@@H](O)[C@H](O)[C@H]6O)CC[C@]5(C)[C@H]4CC[C@]3(C)[C@H]1[C@@H]2C [TAIII, timosaponin AIII] |  |  |  |  |  |  |  |  |
| < 2 | 0.0546 | 0.0495 | 0.55 | 0.0651 | 0.0702 |  |  | 0.91 | O=c1c2cc(O)c(O)cc2oc2c([C@@H]3O[C@H](CO)[C@@H](O)[C@H](O)[C@H]3O)c(O)cc(O)c12 [IMGF, isomangiferin] |  |  |  |  |  |  |  |  |
| < 2 | 0.0976 | 0.0654 | 0.52 | 0.121 | 0.137 |  |  | 0.67 | O=c1c2cc(O[C@@H]3O[C@H](CO)[C@@H](O)[C@H](O)[C@H]3O)c(O)cc2oc2cc(O)c([C@@H]3O[C@H](CO)[C@@H](O)[C@H](O)[C@H]3O)c(O)c12 [NMGF, neomangiferin] |  |  |  |  |  |  |  |  |
| > 2 | 1.81 | 1.5 | 0.65 | 0.719 | 1.67 | 1.85 | 2.34 | 0.83 | C[C@@H](CC[C@@]1(O)O[C@H]2C[C@H]3[C@@H]4CC[C@@H]5C[C@@H](O[C@@H]6O[C@H](CO)[C@H](O)[C@H](O)[C@H]6O[C@@H]6O[C@H](CO)[C@@H](O)[C@H](O)[C@H]6O)CC[C@]5(C)[C@H]4CC[C@]3(C)[C@H]2[C@@H]1C)CO[C@@H]1O[C@H](CO)[C@@H](O)[C@H](O)[C@H]1O [TBII, timosaponin BII] |  |  |  |  |  |  |  |  |

| Compound | efflux ratio at 2 h (P-gp [1]; [6]) | Papp A→B at 2 h (P-gp [3]; MDCK-MDR1, n = 3) [×10⁻⁶ cm/s] | Papp B→A at 2 h (P-gp [3]; MDCK-MDR1, n = 3) [×10⁻⁶ cm/s] | efflux ratio at 2 h (P-gp [1]; [7]) | Papp A→B at 2 h (P-gp [1]; [8]) [×10⁻⁶ cm/s] | Papp B→A at 2 h (P-gp [1]; [9]) [×10⁻⁶ cm/s] | Papp (AP-BL) of rhodamine-123 in combination with the compound (P-gp [2]) [×10⁻⁶ cm/s] | Papp (BL-AP) of rhodamine-123 in combination with the compound (P-gp [2]) [×10⁻⁶ cm/s] | efflux ratio at 2 h (P-gp [3]; [10]) | Papp A→B at 2 h (P-gp [1]; [5]) [×10⁻⁶ cm/s] | Papp B→A at 2 h (P-gp [1]; [5]) [×10⁻⁶ cm/s] | efflux ratio at 2 h (P-gp [1]; [5]) | Papp A→B at 2 h (P-gp [1]; MDCK-MDR1, Single Component Group, 2.0 µM TAIII, 1.6 μM TBII, 4.7 μM MGF, 4.7 μM IMGF, 3.4 μM NMGF, 1.2 μM SSG, 3.9 μM BHI) [×10⁻⁶ cm/s] | Papp B→A at 2 h (P-gp [1]; MDCK-MDR1, Single Component Group) [×10⁻⁶ cm/s] | ER (efflux ratio) of rhodamine-123 in combination with the compound (P-gp [2]; 10 μM Rh-123 with AR component or 0.625 μM valspodar, control ER 2.46, MDCK-MDR1, n = 3) | efflux ratio at 2 h (P-gp [3]; AR Extract Group, MDCK-MDR1, n = 3, read-out: ER (efflux ratio)) | Pe value [4] |
| --- | --- | --- | --- | --- | --- | --- | --- | --- | --- | --- | --- | --- | --- | --- | --- | --- | --- |
| C[C@H]1CC[C@@]2(OC1)O[C@H]1C[C@H]3[C@@H]4CC[C@@H]5C[C@@H](O)CC[C@]5(C)[C@H]4CC[C@]3(C)[C@H]1[C@@H]2C [SSG, sarsasapogenin] | < 2 | 0.0398 | 0.0347 |  |  |  |  |  |  | 0.0904 | 0.0374 | 0.41 | 0.0374 | 0.0566 | no statistical difference | 0.87 |  |
